Source: PubChem BioAssay AID252 (DTP/NCI, 2004)
Where “and” joins values, the source holds several entries; their conditions need not be identical. Identical values can stand only once. Toxic doses and inconclusive results are not listed.

Test system: BDF1 mice, intracerebral L1210 leukemia, survival T/C
Assay: NCI In Vivo Anticancer Drug Screen. Data for tumor model L1210 Leukemia (intracerebral) in B6D2F1 (BDF1) mice
Conditions: higher = longer survival
Summary of the method: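 Tumour was transplanted, animals received compound or vehicle, then survival in each group was measured and treated divided by control.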

## O=C1CN=C(c2ccc[nH]2)c2cc(Cl)ccc2N1
endpoint: mean survival time, dose: 248.0 mg/kg/injection, schedule: Q01DX009 (sc), vehicle: Klucel (hydroxypropylcellulose) (HPC)
  T/C: 103 % of control
endpoint: mean survival time, dose: 377.0 mg/kg/injection, schedule: Q01DX009 (sc), vehicle: Klucel (hydroxypropylcellulose) (HPC)
  T/C: 108 % of control
endpoint: mean survival time, dose: 571.0 mg/kg/injection, schedule: Q01DX009 (sc), vehicle: Klucel (hydroxypropylcellulose) (HPC)
  T/C: 100 % of control
endpoint: mean survival time, dose: 858.0 mg/kg/injection, schedule: Q01DX009 (sc), vehicle: Klucel (hydroxypropylcellulose) (HPC)
  T/C: 108 % of control
endpoint: mean survival time, dose: 1300.0 mg/kg/injection, schedule: Q01DX009 (sc), vehicle: Klucel (hydroxypropylcellulose) (HPC)
  T/C: 122 % of control
endpoint: median survival time, dose: 1.75 mg/kg/injection, schedule: Q01DX009 (ip), vehicle: other
  T/C: 102 % of control
endpoint: median survival time, dose: 3.15 mg/kg/injection, schedule: Q01DX009 (ip), vehicle: other
  T/C: 102 % of control
endpoint: median survival time, dose: 6.3 mg/kg/injection, schedule: Q01DX009 (ip), vehicle: other
  T/C: 106 % of control
endpoint: median survival time, dose: 12.5 mg/kg/injection, schedule: Q01DX009 (ip), vehicle: other
  T/C: 102 % of control
endpoint: median survival time, dose: 25.0 mg/kg/injection, schedule: Q01DX009 (ip), vehicle: other
  T/C: 110 % of control

## CCCCCCCCCCCCCCCC(=O)OCC1OC(n2ccc(N)nc2=O)C(O)C1O (stereo not given)
endpoint: mean survival time, dose: 5.0 mg/kg/injection, schedule: Q01DX005 (ip), vehicle: other
  T/C: 111 % of control (2×) and 117 % of control
endpoint: mean survival time, dose: 20.0 mg/kg/injection, schedule: Q01DX005 (ip), vehicle: other
  T/C: 154 % of control and 177 % of control and 180 % of control
endpoint: mean survival time, dose: 25.0 mg/kg/injection, schedule: Q01DX001 (ip), vehicle: other
  T/C: 110 % of control and 112 % of control and 116 % of control
endpoint: mean survival time, dose: 25.0 mg/kg/injection, schedule: Q01DX005 (ip), vehicle: other
  T/C: 171 % of control and 192 % of control and 202 % of control
endpoint: mean survival time, dose: 30.0 mg/kg/injection, schedule: Q01DX005 (ip), vehicle: other
  T/C: 169 % of control and 204 % of control and 242 % of control
endpoint: mean survival time, dose: 35.0 mg/kg/injection, schedule: Q01DX005 (ip), vehicle: other
  T/C: 201 % of control and 211 % of control and 214 % of control
endpoint: mean survival time, dose: 100.0 mg/kg/injection, schedule: Q01DX001 (ip), vehicle: other
  T/C: 166 % of control
endpoint: mean survival time, dose: 150.0 mg/kg/injection, schedule: Q01DX001 (ip), vehicle: other
  T/C: 173 % of control and 191 % of control and 213 % of control
endpoint: mean survival time, dose: 200.0 mg/kg/injection, schedule: Q01DX001 (ip), vehicle: other
  T/C: 170 % of control and 216 % of control and 242 % of control
endpoint: mean survival time, dose: 250.0 mg/kg/injection, schedule: Q01DX001 (ip), vehicle: other
  T/C: 161 % of control and 195 % of control and 222 % of control
endpoint: median survival time, dose: 25.0 mg/kg/injection, schedule: Q01DX009 (ip), vehicle: saline with Tween-80
  T/C: 295 % of control
endpoint: median survival time, dose: 50.0 mg/kg/injection, schedule: Q01DX009 (ip), vehicle: saline with Tween-80
  T/C: 106 % of control

## CC12CC3(C)CC(C)(C1)CC(NC(=O)N(CCCl)N=O)(C2)C3
endpoint: mean survival time, dose: 45.0 mg/kg/injection, schedule: Q01DX001 (ip), vehicle: other
  T/C: 95 % of control
endpoint: mean survival time, dose: 60.0 mg/kg/injection, schedule: Q01DX001 (ip), vehicle: other
  T/C: 97 % of control
endpoint: mean survival time, dose: 90.0 mg/kg/injection, schedule: Q01DX001 (ip), vehicle: other
  T/C: 104 % of control
endpoint: mean survival time, dose: 125.0 mg/kg/injection, schedule: Q01DX001 (ip), vehicle: other
  T/C: 110 % of control
endpoint: mean survival time, dose: 187.0 mg/kg/injection, schedule: Q01DX001 (ip), vehicle: other
  T/C: 112 % of control

## COS(C)(=O)=O
endpoint: median survival time, dose: 16.0 mg/kg/injection, schedule: Q01DX005 (ip), vehicle: saline
  T/C: 104 % of control
endpoint: median survival time, dose: 32.0 mg/kg/injection, schedule: Q01DX005 (ip), vehicle: saline
  T/C: 99 % of control
endpoint: median survival time, dose: 64.0 mg/kg/injection, schedule: Q01DX005 (ip), vehicle: saline
  T/C: 99 % of control
endpoint: median survival time, dose: 128.0 mg/kg/injection, schedule: Q01DX005 (ip), vehicle: saline
  T/C: 101 % of control

## CN(N=O)C(=O)Nc1ccccc1
endpoint: mean survival time, dose: 150.0 mg/kg/injection, schedule: Q01DX001 (ip), vehicle: carboxymethylcellulose (CMC)
  T/C: 103 % of control
endpoint: mean survival time, dose: 300.0 mg/kg/injection, schedule: Q01DX001 (ip), vehicle: carboxymethylcellulose (CMC)
  T/C: 98 % of control

## COc1cc(NS(C)(=O)=O)ccc1Nc1c2ccccc2nc2c(C)cccc12
endpoint: mean survival time, dose: 2.5 mg/kg/injection, schedule: Q01DX009 (ip), vehicle: water
  T/C: 116 % of control and 113 % of control
endpoint: mean survival time, dose: 2.5 mg/kg/injection, schedule: Q01DX009 (sc), vehicle: water
  T/C: 112 % of control and 111 % of control
endpoint: mean survival time, dose: 5.0 mg/kg/injection, schedule: Q01DX009 (ip), vehicle: water
  T/C: 112 % of control
endpoint: mean survival time, dose: 5.0 mg/kg/injection, schedule: Q01DX009 (sc), vehicle: water
  T/C: 105 % of control and 104 % of control
endpoint: mean survival time, dose: 10.0 mg/kg/injection, schedule: Q01DX009 (sc), vehicle: water
  T/C: 103 % of control

## O=NN(CCCl)C(=O)Nc1ccccc1Cl
endpoint: mean survival time, dose: 22.0 mg/kg/injection, schedule: Q01DX001 (ip), vehicle: carboxymethylcellulose (CMC)
  T/C: 100 % of control
endpoint: mean survival time, dose: 33.0 mg/kg/injection, schedule: Q01DX001 (ip), vehicle: carboxymethylcellulose (CMC)
  T/C: 89 % of control
endpoint: mean survival time, dose: 50.0 mg/kg/injection, schedule: Q01DX001 (ip), vehicle: carboxymethylcellulose (CMC)
  T/C: 100 % of control

## N[C@H](C(=O)O)[C@H]1ON=C(Cl)[C@@H]1O
endpoint: mean survival time, dose: 8.0 mg/kg/injection, schedule: Q01DX009 (ip), vehicle: saline
  T/C: 109 % of control
endpoint: mean survival time, dose: 16.0 mg/kg/injection, schedule: Q01DX009 (ip), vehicle: saline
  T/C: 115 % of control
endpoint: median survival time, dose: 256.0 mg/kg/injection, schedule: Q01DX009 (ip), vehicle: saline
  T/C: 123 % of control
endpoint: median survival time, dose: 512.0 mg/kg/injection, schedule: Q01DX009 (ip), vehicle: saline
  T/C: 111 % of control
endpoint: median survival time, dose: 1024.0 mg/kg/injection, schedule: Q01DX009 (ip), vehicle: saline
  T/C: 171 % of control

## C[C@H](N)C(=O)N[C@@H]1[C@H]2C(=C(O)C[C@@H](O)[C@@H]2O)C(=O)O[C@@H]1C
endpoint: mean survival time, dose: 125.0 mg/kg/injection, schedule: Q01DX Z (ip), vehicle: saline
  T/C: 97 % of control
endpoint: mean survival time, dose: 211.0 mg/kg/injection, schedule: Q01DX015 (ip), vehicle: saline
  T/C: 103 % of control
endpoint: mean survival time, dose: 250.0 mg/kg/injection, schedule: Q01DX Z (ip), vehicle: saline
  T/C: 107 % of control
endpoint: mean survival time, dose: 320.0 mg/kg/injection, schedule: Q01DX015 (ip), vehicle: saline
  T/C: 103 % of control
endpoint: mean survival time, dose: 480.0 mg/kg/injection, schedule: Q01DX015 (ip), vehicle: saline
  T/C: 102 % of control
endpoint: mean survival time, dose: 500.0 mg/kg/injection, schedule: Q01DX Z (ip), vehicle: saline
  T/C: 109 % of control
endpoint: mean survival time, dose: 720.0 mg/kg/injection, schedule: Q01DX015 (ip), vehicle: saline
  T/C: 103 % of control
endpoint: mean survival time, dose: 750.0 mg/kg/injection, schedule: Q01DX Z (ip), vehicle: saline
  T/C: 107 % of control
endpoint: mean survival time, dose: 1000.0 mg/kg/injection, schedule: Q01DX Z (ip), vehicle: saline
  T/C: 106 % of control
endpoint: mean survival time, dose: 1080.0 mg/kg/injection, schedule: Q01DX015 (ip), vehicle: saline
  T/C: 105 % of control
endpoint: mean survival time, dose: 1500.0 mg/kg/injection, schedule: Q01DX Z (ip), vehicle: saline
  T/C: 106 % of control
endpoint: mean survival time, dose: 2024.0 mg/kg/injection, schedule: Q01DX001 (ip), vehicle: saline
  T/C: 109 % of control
endpoint: mean survival time, dose: 3082.0 mg/kg/injection, schedule: Q01DX001 (ip), vehicle: saline
  T/C: 105 % of control

## C[n+]1ccc(Nc2ccc(NC(=O)c3ccc(Nc4cc[n+](C)c5ccc(N)cc45)cc3N)cc2)cc1
endpoint: mean survival time, dose: 1.0 mg/kg/injection, schedule: Q01DX009 (ip), vehicle: water
  T/C: 93 % of control
endpoint: mean survival time, dose: 2.0 mg/kg/injection, schedule: Q01DX009 (ip), vehicle: water
  T/C: 97 % of control
endpoint: mean survival time, dose: 4.0 mg/kg/injection, schedule: Q01DX009 (ip), vehicle: water
  T/C: 104 % of control
endpoint: mean survival time, dose: 8.0 mg/kg/injection, schedule: Q01DX009 (ip), vehicle: water
  T/C: 112 % of control

## CC(=O)NC1=C(N2CC2C)C(=O)C(NC(C)=O)=C(N2CC2C)C1=O (stereo not given)
endpoint: mean survival time, dose: 2.5 mg/kg/injection, schedule: Q01DX009 (ip), vehicle: saline with Tween-80
  T/C: 118 % of control
endpoint: mean survival time, dose: 2.5 mg/kg/injection, schedule: Q01DX009 (ip), vehicle: saline
  T/C: 111 % of control
endpoint: mean survival time, dose: 5.0 mg/kg/injection, schedule: Q01DX009 (ip), vehicle: saline with Tween-80
  T/C: 120 % of control
endpoint: mean survival time, dose: 5.0 mg/kg/injection, schedule: Q01DX009 (ip), vehicle: saline
  T/C: 114 % of control
endpoint: mean survival time, dose: 10.0 mg/kg/injection, schedule: Q01DX009 (ip), vehicle: saline with Tween-80
  T/C: 94 % of control
endpoint: mean survival time, dose: 10.0 mg/kg/injection, schedule: Q01DX009 (ip), vehicle: saline
  T/C: 97 % of control
endpoint: mean survival time, dose: 20.0 mg/kg/injection, schedule: Q01DX009 (ip), vehicle: saline with Tween-80
  T/C: 88 % of control

## O=NN(CCCl)C(=O)NC1CCC(C(=O)O)CC1 (stereo not given)
endpoint: mean survival time, dose: 8.0 mg/kg/injection, schedule: Q01DX001 (ip), vehicle: saline with Tween-80
  T/C: 165 % of control
endpoint: mean survival time, dose: 26.0 mg/kg/injection, schedule: Q01DX001 (ip), vehicle: saline with Tween-80
  T/C: 181 % of control and 206 % of control
endpoint: mean survival time, dose: 40.0 mg/kg/injection, schedule: Q01DX001 (ip), vehicle: saline with Tween-80
  T/C: 185 % of control and 212 % of control
endpoint: mean survival time, dose: 60.0 mg/kg/injection, schedule: Q01DX001 (ip), vehicle: saline with Tween-80
  T/C: 204 % of control

## CC12CC3(C)CC(C)(C1)CC(NC(=O)N(CCF)N=O)(C2)C3
endpoint: mean survival time, dose: 82.0 mg/kg/injection, schedule: Q01DX001 (ip), vehicle: other
  T/C: 113 % of control
